# Measurements taken from a melting point compilation (Tetko et al.; mined from patent text by program, amines drawn as free bases though some values may be those of a salt).
# Non-standard residues stand in square brackets, D forms with d. Residues, ends and D or L forms follow the SMILES beside them. ξ: configuration not given here. *: point of attachment. Boc = CC(C)(C)OC(=O)*; Dha = C=C(N)C(=O)O; ξP = O=C(O)C1CCCN1
row,melting point [°C],Structure (SMILES)
1,206 to 207,O=C(Nc1ccc(Cl)cn1)c1ccccc1O
2,102 to 105,OC1c2ccccc2Sc2ccccc21
3,144 to 145,CSc1nc2ccccc2c(-c2ccccc2)c1C(=O)N(C)Cc1cc(C(F)(F)F)cc(C(F)(F)F)c1
4,57 to 60,COc1ccc(Cl)cc1[C@]1(F)C(=O)N(C(=O)NC(C)(C)C(=O)O)c2cc(C(F)(F)F)ccc21
5,146 to 147,CC(C)Cn1c(CNC(=O)OC(C)(C)C)c(-c2ccccc2)c2cc(/C=C/C(N)=O)ccc2c1=O
6,178 to 180,O=C(O)CCCc1ccc(NS(=O)(=O)c2ccc(Cl)cc2)cn1
7,243 to 245,Cc1sc2c(Br)c3ccccc3c(C3=CC(Br)([N+](=O)[O-])C(OC(Cc4ccccc4)C(=O)O)C=C3)c2c1C (centres undefined)
8,112 to 114,CCOC(=O)CC(=O)c1cc2cc(F)c(Cl)cc2nc1Cl
9,> 250,CSc1nc(N2CCc3ccccc3CC2)c(C#N)c(=O)[nH]1
10,55 to 56,CN1CCC(Oc2noc3ccc(Cl)cc23)CC1
11,105 to 110,CN(C)c1ccc(S(=O)(=O)NCCCCC(=O)O)cc1
12,197 to 199,O=C(O)CCCCNCc1cc2cc3c(cc2c2cc(OCc4ccccc4)ccc12)OCO3
13,301 to 304,O=C1Nc2ccc([N+](=O)[O-])cc2C1c1ncnc2nn(C3CCCCC3)cc12 (centres undefined)
14,74 to 76,CN1Cn2cc(CO)cc2-c2ccccc21
15,239 to 241,O=C(O)CCC(=O)c1ccc(NC(=O)c2cccc(F)c2)cc1
16,90 to 92,C[C@@](O)(C(=O)Nc1ccc(S(=O)(=O)c2ccccc2F)cc1Cl)C(F)(F)F
17,135 to 136,O=Cc1cc2n(c1)CCc1ccccc1C2=O
18,116 to 117,O=C(Nc1ccc(F)nc1)C1CC1
19,> 300,CC(CCNC(=O)C(C#N)=Cc1cc(O)c(O)c(O)c1)NC(=O)C(C#N)=Cc1cc(O)c(O)c(O)c1 (centres undefined)
20,30,CC(C)(C)c1cc(Cc2c(S)ccc3ccccc23)cc(C(C)(C)C)c1O
21,209 to 210,CC(=O)N1c2ccccc2N(Cc2ccccc2)C(=O)[C@H]2CCC[C@H]21 (relative stereo)
22,161 to 163,CCSc1nc2c(C)ccnc2n1Cc1ccc(C2(Br)CC(C#N)=CN2C)cc1 (centres undefined)

row,melting point [°C],Structure (SMILES)
1,123 to 124,CCOC(=O)C1(C(=O)OCC)CCC2(CC1)c1ccc(O)cc1CCN2C(=O)OCc1ccccc1
2,247 to 250,CCS(=O)C1CCC2C3CCC4=CC(=O)C=CC4(C)C3(F)C(O)CC21C (centres undefined)
3,138 to 140,CC(C)(C)NC(=O)Nc1nc2nc(S(C)(=O)=O)ncc2cc1-c1c(Cl)cccc1Cl
4,185 to 186,O=S(=O)(Nc1n[nH]c(SCc2ccc(Oc3ccc(F)cc3)cc2)c1-c1ccccn1)c1c(Cl)cccc1Cl
5,234 to 236,CCOC(=O)c1[nH]c2cccnc2c1-c1ccc([N+](=O)[O-])cc1
6,113 to 114,COC(=O)C(C)Nc1nc(Cl)ccc1[N+](=O)[O-] (centres undefined)
7,90 to 93,Fc1ccc(-c2cc(Cl)c3ccccc3n2)cc1
8,178 to 179,CCN(CC)CCOc1ccc(CCNC(=O)c2ccc(-c3ccc(Cl)cc3)cc2)cc1
9,229 to 231,CCN(CC)c1ccc2nc3c4ccccc4c(=Nc4nc5ccc(Cl)cc5s4)cc-3oc2c1
10,280,COc1cc2[nH]c(=O)cc(C(F)(F)F)c2cc1NC(C)=O
11,169 to 172,O=[N+]([O-])c1cnn(-c2ccc(Cl)nn2)c1
12,94 to 96,CC(CC(=O)O)(c1ccc(OCc2ccc3ccccc3n2)cc1)c1ccc(OCc2ccc3ccccc3n2)cc1
13,137 to 138,CCOC(=O)CNc1ncccc1NC(=O)c1ccc(Cl)c(Cl)c1
14,127 to 128,O=c1c(Cl)c(N2CCOCC2)oc2ccccc12
15,172,COC(=O)c1ccc(Cl)c(C2(O)C(=O)N(Cc3ccc(OC)cc3OC)c3ccccc32)c1 (centres undefined)
16,165 to 168,CCN(CC)CCn1nc2c3c(c(NC(=O)CN(CCOCc4ccccc4)Cc4ccccc4)ccc31)Oc1ccc(O)cc1-2
17,167,Cc1cc(OC2CN(C(=O)c3nnc(-c4ccccc4)o3)C2)ccc1CN1CCC(C)(CO)CC1
18,125 to 126,CN(C)CCc1ccc(OCCCNc2nc(N)nn2C)cc1
19,90,C#CCCCNC(=O)C(c1ccccc1)c1ccccc1
20,213 to 216,CC1(C)CC(=O)c2c(S(C)(=O)=O)sc(-c3cc[nH]n3)c2C1
21,155 to 158,COc1cc(C=CC(COc2ccccc2)=NO)ccc1O

# The remaining lines, values behind:
row,Structure (SMILES),melting point [°C]
1,COc1ccccc1Cc1ccc2[nH]c3cnn(C)c3c(=O)c2c1,255
2,CCOc1cc(N)ccc1-c1ccc(-c2ccc(N)cc2OCC)o1,192 to 193
3,CC1(CN2CCCN(Cc3ccc(-c4ccccc4)cc3)CC2)Cn2cc([N+](=O)[O-])nc2O1 (centres undefined),138 to 142
4,C=CC(=O)c1cnc(N2CCC[C@H]2CO)nc1NCc1ccc(OC)c(Cl)c1,113 to 115
5,O=C(NCCSCc1cccc(Cl)c1)c1ccccc1,75 to 76
6,COC1=CCC2=C(CCC3C2CCC2(C)C(=O)CCC32)C1 (centres undefined),106 to 110
7,CC1(C)CC(SCc2c(Cl)nn(C(F)F)c2C(F)(F)F)=NO1,89 to 90
8,CCCCCCCCCCCCC(Oc1ccc2c(c1)OCO2)C(=O)O (centres undefined),70 to 72
9,NC(=O)c1cc(C(=O)CN(Cc2ccccc2)Cc2ccccc2)ccc1OCCCCOC1CCCCO1 (centres undefined),118 to 123
10,Cc1[nH]c(C(=O)Nc2ccc(C#N)cc2)c(C)c1-c1nc2ccc(C(=O)c3ccccc3)cc2[nH]1,252 to 254
11,CCCCNC(=O)NS(=O)(=O)c1c(C(=O)OCC)cnn1-c1ccccn1,180 to 181
12,N=C(Nc1ccc(Cl)cc1)Nc1ncccc1OCc1c(F)cc(F)cc1F,161 to 162
13,CC(Cc1ccc(C(C)(C)C)cc1)C[N+]1([O-])CC(C)OC(C)C1 (centres undefined),115 to 118
14,COc1ccc(Cc2nc(N3CCOCC3)c3c(C)c(C#N)sc3n2)cc1OC,67 to 70
15,"COc1cc(C)cc(OC)c1C1=NC(NC(=O)c2cc3ccccc3[nH]2)C(=O)N(C)c2ccccc21 (single isomer, unassigned; (-))",135
16,COc1cc2c(cc1OCc1ccccc1)CCCCC2=O,95 to 96
17,C[C@H]1[C@@H](C(C)(C)O)CCN1c1ccc(C#N)c2sccc12,146 to 147
18,COc1cnccc1C(C)=O,36 to 37
19,NC(=S)NC1CCCc2sccc21 (centres undefined),129 to 131

row,Structure (SMILES),melting point [°C]
1,COC(=O)C(Oc1ccc(Cl)c2c1CCC2)c1ccc(Oc2ccc(Cl)cc2)cc1 (centres undefined),94 to 96
2,Cc1nc(-c2ncn3c2c(C)nc2ccccc23)no1,192 to 193
3,COc1cccc(CNC(=O)c2nc3cccc(OCc4ccc(-c5nnn[nH]5)cc4)c3c(=O)[nH]2)c1,227 to 229
4,OCCOc1ccc(C2CNCCN2)cc1 (racemic),141
5,CCC(=O)c1cn(-c2c(Cl)cc(C(F)(F)F)cc2Cl)nc1C#N,143
6,CC(C)(C)c1ccc(-c2nc(COCCc3cccc(NS(=O)(=O)C(F)(F)F)c3)cs2)cc1,110 to 112
7,Cc1c(NC(=O)C(C)(C)C)cccc1C(F)(F)F,122
8,CCn1nc(Cc2ccc([N+](=O)[O-])cc2)oc1=O,108 to 109
9,CCOC(=O)c1ncn(-c2ccc(Cl)c(Cl)c2)c1C,163 to 164
10,OCCC1(CCO)CCN(Cc2ccccc2)CC1,75 to 78
11,O=C1Nc2ccc(Cl)cc2C(c2ccccc2)=NC1OCCc1ccc(O)cc1 (centres undefined),222 to 230
12,NC(=O)CC(CC(N)=O)c1c(Cl)cccc1Cl,221 to 225
13,CCn1cc(C(=O)O)c(=O)c2c(C)c(F)c(N3CCNCC3)c(F)c21,223 to 225
14,N#CC(=O)c1cccc(Cl)c1,146 to 148
15,Cc1nn(CC2CCCC2)c2nc(-c3ccncc3)nc(N)c12,177 to 178
16,CCSC1(Sc2ccccc2)CCC2C3CCC4=CC(=O)C=CC4(C)C3(F)C(OC(C)=O)CC21C (centres undefined),145 to 148
17,CCCC(=O)c1cnc2c(C=O)cccc2c1Nc1ccccc1C,142 to 144
18,CCN(CC)CCNc1cc(Cl)c(N)c(CCN(CC)CC)c1[N+](=O)[O-],90
19,C=Cc1cccc2c(Nc3ccc(O)cc3C)c(C(=O)CCC)cnc12,150 to 152

row,Structure (SMILES),melting point [°C]
1,CCC(c1ccccc1)c1c(O)c2c(oc1=O)CCC2 (centres undefined),183 to 186
2,COCCc1sc2ncnc(N)c2c1-c1ccc(N)cc1,144 to 146
3,N#CC(CCN1CCC(c2ccccc2)CC1)(c1ccccc1)c1ccccc1,88 to 89.5
4,Cc1cc(C#N)c2ccccn12,98 to 100
5,CCOC(=O)CN1C(=O)C(N2C(=O)c3ccccc3C2=O)CCCc2ccccc21 (centres undefined),79 to 81
6,Clc1ccc2c(c1)C(c1ccccc1Cl)=NCCN2C1=NCCS1,123 to 124
7,COc1cccc(NC(=O)C2=C(O)c3ccc4ccccc4c3S(=O)(=O)N2C)c1,242 to 244
8,C=C(NC(=O)C1CCCN1C(=O)OC(C)(C)C)C(=O)O (centres undefined) (Boc-[ξP]-[Dha]-OH),154 to 156
9,Nc1cc(-c2ccccn2)c[nH]c1=O,259 to 262
10,N#Cc1ccc(C=CCc2ccc(C#N)cc2)cc1,98 to 105
11,CCCCCCCCCCCCCCCCNc1ccc(C(=O)OCC(COC(C)=O)OC(C)=O)cc1 (centres undefined),68
12,N#Cc1cccc(COc2ccc3ccccc3c2)c1,60 to 61
13,CC1CC(=O)c2cccc(C(N)=S)c21 (centres undefined),198 to 200
14,NC(=O)c1c(I)c(C(=O)N(CC(O)CO)CC(O)CO)c(I)c(N2CCCCC2=O)c1I (centres undefined),214 to 219
15,Clc1ccc(-c2ncc(C#Cc3ccccc3)s2)cc1,108 to 110
16,CCCCCCCCCCCc1cc(O)c(CCCCCC)c(=O)o1,83 to 84
17,FC(F)(F)C(Cl)=NC(c1ccccc1)(c1ccccc1)c1ccccc1,144 to 145
18,Cc1sc2c(c1C)C(c1ccc(Cl)cc1)=N[C@@H](CC(=O)Nc1ccc(N)cc1)c1nnc(C)n1-2,169 to 173
